Measurements published in patent US5708015A, “Method for using pharmaceutical compositions containing 2-(2-alkyphenyl-amino)-thiazolines as adrenergic agents” (Allergan, priority 1996, dated 1998).
Read-outs that look alike come from different tables or passages of the source.

Assays:
[1] = molecular target: T1, α2 B adrenergic receptor (rat kidney cortex membranes) (Rattus norvegicus, UniProt P19328); assay: Alpha2 B (rat kidney) receptor binding assay
T1 construct: Membrane suspensions were prepared from human cerebral cortex (HCC), HT-29 cells (HT) and rat kidney cortex (RtKC); from tissue; host or cells: rat kidney cortex membranes
T1 sequence (P19328 1-453): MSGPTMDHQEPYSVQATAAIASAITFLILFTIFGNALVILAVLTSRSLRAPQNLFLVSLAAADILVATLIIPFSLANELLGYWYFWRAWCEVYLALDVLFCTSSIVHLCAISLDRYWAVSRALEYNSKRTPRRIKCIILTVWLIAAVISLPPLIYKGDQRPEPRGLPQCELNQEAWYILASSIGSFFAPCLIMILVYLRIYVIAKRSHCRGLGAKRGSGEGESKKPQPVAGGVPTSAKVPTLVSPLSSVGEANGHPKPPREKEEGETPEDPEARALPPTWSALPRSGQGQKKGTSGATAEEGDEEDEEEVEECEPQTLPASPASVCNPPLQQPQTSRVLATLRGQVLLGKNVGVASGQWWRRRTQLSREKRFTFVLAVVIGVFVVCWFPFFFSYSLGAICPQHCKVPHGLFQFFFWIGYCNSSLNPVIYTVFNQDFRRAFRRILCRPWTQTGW
Description: (§1) The present compound or compounds may be included in a medication composition together with one or more other components to provide a medication composition which can be effectively administered. Such other components, e.g., carriers, anti-oxidants, bulking agents and the like, may be chosen from those materials which are conventional and well known in the art, e.g., as being included in medication compositions with α2 agonists. Whereas the effective dose of the compounds of the present compositions will depend on the nature of the host mammal and the specific diesease or condition treated it is anticipated that an effective daily dose of the compounds is in the range of 1 microgramm--10 mg per kg/body weight of the host. The ability of the compounds within the present invention to bind strongly and selectively to α2 adrenergic receptors in preference over α1 adrenergic receptors was confirmed by the following assay procedures which are generally recognized in the art to provide pertinent information with respect to the adrenergic activity of the compounds assayed: alpha1 (human brain) assay, alpha2 A (HT-29 cells) assay, and alpha2 B (rat kidney) assay. A description of these assay procedures is as follows.
(§2) Membrane preparation: Membrane suspensions were prepared from human cerebral cortex (HCC), HT-29 cells (HT) and rat kidney cortex (RtKC), as applicable. Tissues were homogenized in iced-cold buffer [250 mM sucrose, 5 mM tris, pH 7.4 (RtKC), or 50 mM Tris-HCl, 5 mM EDTA, pH 7.4 (HCC, HT)] with a Polytron homogenizer for 30 secs at setting #7, and centrifuged for 10 minutes at 300×g at 4° C. The supernatant was diluted 1:2 with 50 mM Tris-HCl buffer, pH 7.4 (RkCC, HCC) or pH 8.0 (HT) then centrifuged at 49,000×g for 15-20 minutes. The pellet fraction was washed 3 times (resuspended in Tris-HCl buffer and centrifuged for 15-20 minutes at 49,000×g). The pellet was then stored at -80° C. until the binding assay. Binding studies: The radioligands [^3 H] rauwolscine (specific activity 80 Ci/mmol) and [^3 H] prazosin (specific activity 77 Ci/mmol) were obtained from New England Nuclear, Boston, Mass. Frozen membrane pellet was resuspended in glycine glycine buffer, pH 7.6. Membrane protein homogenate (150-300 μg) was incubated with radioligand under the following conditions: 22° C., 30 minutes (HCC, HT), 0° C., 120 minutes (RtKC), in a final volume of 500 μl. At the end of the incubation period, the samples were filtered through glass fiber filters (Whatman GF/B) in a 96-well cell harvester and rapidly washed four times with 4 mls of iced-cold 50 mM Tris-HCl buffer. The filters were then oven dried and transferred to scintillation vials containing 5 mls of Beckman's Ready Protein^R scintillation cocktail for counting. Non-specific binding was defined by 10 μM phentolamine. Protein concentrations were determined with a protein assay kit from Bio Rad. Binding isotherms, equilibrium dissociation and affinity constants were analyzed and determined by the non-linear least squares curve fitting program AccuFit Competition/Saturation by Beckman.
(§3) As it will be recognized by those skilled in the art from the forogoing descriptions, the described assays are radioligand assays which measure the binding of the test compound to the respective α1 or α2 receptor. […]

[2] = molecular target: T2, α2 A adrenergic receptor (HT-29 cells) (Homo sapiens, UniProt P08913); assay: Alpha2 A (HT-29 cells) receptor binding assay
T2 construct: Membrane suspensions were prepared from human cerebral cortex (HCC), HT-29 cells (HT) and rat kidney cortex (RtKC); endogenous in cells; host or cells: HT-29 cells
Description: as §1, §2, §3

[3] = molecular target: α1 adrenergic receptor (human cerebral cortex membranes); assay: Alpha1 (human brain) receptor binding assay; settings: 22° C., 30 minutes, [3H] radioligand
Description: as §1
as §2, with “Membrane protein homogenate (150-300 μg) was incubated with radioligand under the following conditions: 22° C., 30 minutes (HCC, HT), 0° C., 120 minutes (RtKC), in a final volume of 500 μl. At the end of the incubation period, the samples were filtered through glass fiber filters (Whatman GF/B) in a 96-well cell harvester and rapidly washed four times with 4 mls of iced-cold 50 mM Tris-HCl buffer.” left out, “Non-specific binding was defined by 10 μM phentolamine.” left out, “Beckman. […]” for “Beckman.”

T2 sequence (P08913 whole entry): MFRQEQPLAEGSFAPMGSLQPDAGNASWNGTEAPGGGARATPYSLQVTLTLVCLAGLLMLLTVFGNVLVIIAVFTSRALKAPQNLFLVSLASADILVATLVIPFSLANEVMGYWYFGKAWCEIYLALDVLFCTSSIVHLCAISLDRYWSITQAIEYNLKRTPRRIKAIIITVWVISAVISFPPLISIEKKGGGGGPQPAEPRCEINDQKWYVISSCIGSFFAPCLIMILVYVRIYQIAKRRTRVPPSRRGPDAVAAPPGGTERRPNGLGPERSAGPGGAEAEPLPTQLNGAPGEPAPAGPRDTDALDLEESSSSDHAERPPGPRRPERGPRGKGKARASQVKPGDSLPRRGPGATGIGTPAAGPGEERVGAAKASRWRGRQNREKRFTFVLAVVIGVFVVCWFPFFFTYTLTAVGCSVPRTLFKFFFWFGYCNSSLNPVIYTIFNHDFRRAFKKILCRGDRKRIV

Structure (SMILES) | Ki [1] [nM] | Ki [2] [nM] | Ki [3] [nM] | Ki ([1]; rat kidney cortex membranes, 0° C., 120 minutes, [3H] radioligand, read-out: α2 B Ki) [nM]
Cc1cccc(NC2=NCCO2)c1C [Compound 1, 2-[2,3-Dimethylphenylamino)-oxazoline] | 8.5 | 5.1 | 1210 | –
Cc1cccc(N=C2NCCN2)c1C [Compound 3, 2-(2,3-Dimethylphenylimino)-imidazolidine] | 1.5 | 5.8 | 434 | –
c1cc2c(c(NC3=NCCO3)c1)CCCC2 [Compound 2, 2-(5,6,7,8-tetrahydronaphthylamino)-oxazoline] | 6.2 | 2.2 | – | –
Cc1ccccc1NC1=NCCO1 [Compound 1a] | – | 35.7 | 7400 | 208
Cc1ccccc1N=C1NCCN1 [Compound 3a, 2-(2-methylphenylimino)-imidazolidine] | 25.3 | 7.5 | 2170 | –
